Measurements taken from the supplement of paper PMC11061612.

Assays:
Experiment in all cases: combination Emax (second highest fraction inhibited in the dose matrix, 72 h); higher = more inhibition; extreme values may be limits of the assay
[1] = test system: 5637 (Bladder Carcinoma)
Method in brief: (§1)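 After 24 hours at 37°C and 5% CO2 in 1536-well plates, cells in DMEM/F12 or RPMI plus 10% FBS received two-drug dose matrices for 72 hours. Viability came from CellTiter-Glo 2.0 luminescence and was scaled as inhibition, anchored at 0 by vehicle wells and at 1 by blank wells. Combination Emax is taken as the second-highest inhibition in the matrix, and Bliss excess as the observed combination effect less EA + EB − EA·EB, with EA and EB the single-agent effects.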

[2] = test system: 769-P (Kidney Carcinoma)
Method in brief: as §1

[3] = test system: A253 (Head and Neck Carcinoma)
Method in brief: as §1

[4] = test system: A2780 (Ovarian Carcinoma)
Method in brief: as §1

[5] = test system: CAL-27 (Oral Cavity Carcinoma)
Method in brief: as §1

[6] = test system: DU-4475 (Breast Carcinoma)
Method in brief: as §1

[7] = test system: EB2 (Burkitt's Lymphoma)
Method in brief: as §1

[8] = test system: EPLC-272H (Other Solid Carcinomas)
Method in brief: as §1

[9] = test system: EW-16 (Ewing's Sarcoma)
Method in brief: as §1

[10] = test system: G-402 (Other Solid Carcinomas)
Method in brief: as §1

[11] = test system: HCC1428 (Breast Carcinoma)
Method in brief: as §1

[12] = test system: Jurkat (T-Lymphoblastic Leukemia)
Method in brief: as §1

[13] = test system: KYSE-140 (Esophageal Squamous Cell Carcinoma)
Method in brief: as §1

[14] = test system: LU-165 (Small Cell Lung Carcinoma)
Method in brief: as §1

[15] = test system: MHH-ES-1 (Ewing's Sarcoma)
Method in brief: as §1

[16] = test system: OACp4C (Esophageal Adenocarcinoma)
Method in brief: as §1

[17] = test system: PEO1 (Ovarian Carcinoma)
Method in brief: as §1

[18] = test system: RH-41 (Rhabdomyosarcoma)
Method in brief: as §1

[19] = test system: SK-HEP-1 (Hepatocellular Carcinoma)
Method in brief: as §1

[20] = test system: WM1552C (Melanoma)
Method in brief: as §1

SMILES | combination Emax [1] | combination Emax [2] | combination Emax [3] | combination Emax [4] | combination Emax [5] | combination Emax [6] | combination Emax [7] | combination Emax [8] | combination Emax [9] | combination Emax [10] | combination Emax [11] | combination Emax [12] | combination Emax [13] | combination Emax [14] | combination Emax [15] | combination Emax [16] | combination Emax [17] | combination Emax [18] | combination Emax [19] | combination Emax [20]
NC1(C(=O)N[C@@H](CCO)c2ccc(Cl)cc2)CCN(c2ncnc3[nH]ccc23)CC1 [Capivasertib] + CC(=O)c1c(C)c2cnc(Nc3ccc(N4CCNCC4)cn3)nc2n(C2CCCC2)c1=O [Palbociclib] (first compound max 10 µM, 7x7, partner max 10 µM) | 0.387 | 0.773 | 0.673 | 0.77 | 0.69 | 0.295 | 0.566 | 0.891 | 0.44 | 0.605 | 0.18 | 0.849 | 0.78 | 0.429 | 0.5 | 0.858 | 0.415 | 0.945 | 0.673 | 0.427
Cc1c2c(nn1C)CSCc1cc(n(C)n1)CSc1cc(c3ccccc3c1)OCCCc1c(C(=O)O)n(C)c3c-2c(Cl)ccc13 [AZD5991] + C[C@@H](Nc1cc(F)cc(F)c1)c1cc(C(=O)N(C)C)cc2c(=O)cc(N3CCOCC3)oc12 [AZD8186] (first compound max 1 µM, 7x7, partner max 3 µM) | 0.25 | 0.223 | 0.777 | 0.835 | 0.936 | 0.117 | 0.467 | 0.916 | 0.281 | 0.942 | 0.964 | 0.913 | 0.332 | 0.226 | 0.665 | 0.664 | 0.257 | 0.99 | 0.356 | 0.77
CC(=O)Nc1cccc(-n2c(=O)n(C3CC3)c(=O)c3c(Nc4ccc(I)cc4F)n(C)c(=O)c(C)c32)c1 [Trametinib] + Cc1nc(-c2cn3c(n2)-c2ccc(-c4cnn(C(C)(C)C(N)=O)c4)cc2OCC3)n(C(C)C)n1 [Taselisib] (first compound max 1 µM, 7x7, partner max 10 µM) | 0.989 | 0.681 | 0.954 | 0.972 | 0.946 | 1 | 0.593 | 1 | 0.604 | 0.792 | 0.278 | 0.692 | 0.817 | 0.373 | 0.563 | 1 | 0.825 | 1 | 0.561 | 0.908
CC(=O)c1c(C)c2cnc(Nc3ccc(N4CCNCC4)cn3)nc2n(C2CCCC2)c1=O [Palbociclib] + Cn1cnc2c(F)c(Nc3ccc(Br)cc3Cl)c(C(=O)NOCCO)cc21 [Selumetinib] (first compound max 10 µM, 7x7, partner max 10 µM) | 0.345 | 0.809 | 0.189 | 0.825 | 0.627 | 1 | 0.492 | 0.7 | 0.311 | 0.462 | 0.165 | 0.386 | 0.188 | 0.0618 | 0.352 | 0.557 | 0.295 | 0.269 | 0.372 | 0.47
Cc1c2c(nn1C)CSCc1cc(n(C)n1)CSc1cc(c3ccccc3c1)OCCCc1c(C(=O)O)n(C)c3c-2c(Cl)ccc13 [AZD5991] + Cn1cnc2c(F)c(Nc3ccc(Br)cc3Cl)c(C(=O)NOCCO)cc21 [Selumetinib] (first compound max 1 µM, 7x7, partner max 3 µM) | 0.37 | 0.227 | 0.944 | 0.538 | 0.988 | 1 | 0.212 | 0.94 | 0.258 | 0.955 | 0.977 | 0.927 | 0.439 | 0.161 | 0.672 | 0.835 | 0.25 | 1 | 0.311 | 0.884
NC1(C(=O)N[C@@H](CCO)c2ccc(Cl)cc2)CCN(c2ncnc3[nH]ccc23)CC1 [Capivasertib] + COc1nnc2ccc(N3CCC(c4ccc(OCCN5CCN(C)C(=O)[C@H]5C)cc4)CC3)nn12 [AZD5153] (first compound max 10 µM, 7x7, partner max 1 µM) | 0.627 | 0.729 | 0.75 | 0.873 | 0.833 | 0.979 | 0.707 | 0.944 | 0.515 | 0.723 | 0.571 | 0.992 | 0.857 | 0.712 | 0.717 | 0.905 | 0.453 | 1 | 0.497 | 0.555
